{
  "source": "patent US7084128B2",
  "about": "“Method for reducing intraocular pressure” (Inspire Pharmaceuticals, Inc., priority 2002, dated 2006)",
  "key": {"[1]": {"test_system": "intraocular pressure", "conditions": "literature (Peral et al. 2000; Pintor et al. 2000); cited from earlier work"}, "[2]": {"test_system": "intraocular pressure (IOP)", "conditions": "New Zealand white rabbits; for time of maximal reduction in IOP: 0.25 mM topical single dose, IOP measured at 0.5, 1, 2 and 5 hours after application; for maximal reduction in IOP: 10 microliters of 0.25 mM in 0.9% saline, topical, unilateral, single dose, at time of maximal effect, n=4", "method": "The actions of 2′-(O)-, 3′-(O)-(benzyl)methylenedioxy-adenosine-5′-triphosphate (Compound 1) and 2′-(O)-, 3′-(O)-(benzyl)methylenedioxy-2″-(O)-,3″-(O)-benzyl methylenedioxy-P^1, P^4-di(adenosine 5′-)tetraphosphate (Compound 2) on intraocular pressure (IOP) were assessed in New Zealand white rabbits.\nIntraocular pressure measurements: IOP was measured using a TONOPEN contact tonometer supplied by MENTOR (USA). Ten microliters of the agents were applied topically and unilaterally to the cornea, whereas the contralateral eye received the same volume of saline solution. The corneas were anesthetized to avoid any discomfort associated with the use of the tonometer. Two measurements were made before application of the agents.\nPharmacological studies: Compounds were prepared at a concentration of 0.25 mM in 0.9% saline and intraocular pressure was measured at 0.5, 1, 2, and 5 hours after the application. A single dose was tested in a single animal on a single day."}},
  "data": [
    {"compound": "Nc1ncnc2c1ncn2[C@@H]1O[C@H](COP(=O)(O)OP(=O)(O)CP(=O)(O)O)[C@@H](O)[C@H]1O", "note": "[beta, gamma methylene adenosine triphosphate]", "values": [
      {"measurement": "effect on intraocular pressure in rabbits", "setting": "[1]", "result": "reduce intraocular pressure"}
    ]},
    {"compound": "Nc1ncnc2c1ncn2[C@@H]1O[C@H](COP(=O)(O)OP(=O)(O)OP(=O)(O)OP(=O)(O)OC[C@H]2O[C@@H](n3cnc4c(N)ncnc43)[C@H](O)[C@@H]2O)[C@@H](O)[C@H]1O", "note": "[Diadenosine tetraphosphate]", "values": [
      {"measurement": "effect on intraocular pressure in rabbits", "setting": "[1]", "result": "lower intraocular pressure"}
    ]},
    {"compound": "Nc1ncnc2c1ncn2[C@@H]1O[C@H](COP(=O)(O)CP(=O)(O)OP(=O)(O)O)[C@@H](O)[C@H]1O", "note": "[Alpha, Beta-Methylene adenosine triphosphate]", "values": [
      {"measurement": "effect on intraocular pressure in rabbits", "setting": "[1]", "result": "reduce intraocular pressure"}
    ]},
    {"compound": "Nc1ncnc2c1ncn2[C@@H]1O[C@H](COP(=O)(O)OP(=O)(O)OP(=O)(O)OP(=O)(O)OC[C@H]2O[C@@H](n3cnc4c(N)ncnc43)[C@@H]3OC(Cc4ccccc4)O[C@@H]32)[C@H]2OC(Cc3ccccc3)O[C@H]21", "note": "(stereo partly shown) [Compound 2, 2′-(O)-, 3′-(O)-(benzyl)methylenedioxy-2″-(O)-,3″-(O)-benzyl methylenedioxy-P^1, P^4-di(adenosine 5′-)tetraphosphate]", "values": [
      {"measurement": "time of maximal reduction in IOP", "setting": "[2]", "result": 1, "unit": "h"},
      {"measurement": "maximal reduction in IOP", "setting": "[2]", "result": 22, "unit": "%"}
    ]},
    {"compound": "2′-(O)-, 3′-(O)-(benzyl)methylenedioxy-adenosine-5′-triphosphate [Compound 1]", "values": [
      {"measurement": "time of maximal reduction in IOP", "setting": "[2]", "result": "1 to 2", "unit": "h"},
      {"measurement": "maximal reduction in IOP", "setting": "[2]", "result": 21, "unit": "%"}
    ]}
  ]
}
